Source: ChEMBL document CHEMBL4190185 (Medchemcomm, 2016)
Calls of active or inactive are those of the source. The calls are words filed in the database; no cut-off is given here.

Columns and labels:
[1] = target: Estrogen receptor beta (Mus musculus) (UniProt O08537); assay: Activation of ERbeta in mouse calvarial osteoblasts assessed as induction of osteoblast differentiation by measuring increase in ALP activity at 1 pM using PNPP as substrate after 48 hrs by colorimetric method
Calvarial osteoblast [2] = assay: Cytotoxicity against mouse calvarial osteoblasts at 0.000001 to 1 uM after 48 hrs by MTT assay; format: cell-based
[3] = target: Estrogen receptor beta (Mus musculus) (UniProt O08537); assay: Activation of ERbeta in mouse calvarial osteoblasts assessed as induction of mineralization by measuring increase in calcium nodules at 1 pM supplemented with fresh medium containing compounds every 48 hrs for 18 days measured on day 18 by alizarin red-S staining based colorimetric method relative to control
Calvarial osteoblast [4] = assay: Induction of osteoblast differentiation in mouse calvarial osteoblasts assessed as increase in BMP2 mRNA expression at 1 to 100 pM after 48 hrs by SYBR green1 staining based RT-qPCR analysis; format: functional, cell-based
Calvarial osteoblast [5] = assay: Induction of osteoblast differentiation in mouse calvarial osteoblasts assessed as increase in RUNX2 mRNA expression at 1 to 100 pM after 48 hrs by SYBR green1 staining based RT-qPCR analysis; format: functional, cell-based
Calvarial osteoblast [6] = assay: Induction of osteoblast differentiation in mouse calvarial osteoblasts assessed as increase in osterix mRNA expression at 1 to 100 pM after 48 hrs by SYBR green1 staining based RT-qPCR analysis; format: functional, cell-based
[7] = target: T1, Estrogen receptor (Mus musculus) (UniProt P19785); assay: Up regulation of ERalpha expression in mouse calvarial osteoblasts at 1 to 100 pM after 48 hrs by Western blot analysis
T1 sequence (whole entry): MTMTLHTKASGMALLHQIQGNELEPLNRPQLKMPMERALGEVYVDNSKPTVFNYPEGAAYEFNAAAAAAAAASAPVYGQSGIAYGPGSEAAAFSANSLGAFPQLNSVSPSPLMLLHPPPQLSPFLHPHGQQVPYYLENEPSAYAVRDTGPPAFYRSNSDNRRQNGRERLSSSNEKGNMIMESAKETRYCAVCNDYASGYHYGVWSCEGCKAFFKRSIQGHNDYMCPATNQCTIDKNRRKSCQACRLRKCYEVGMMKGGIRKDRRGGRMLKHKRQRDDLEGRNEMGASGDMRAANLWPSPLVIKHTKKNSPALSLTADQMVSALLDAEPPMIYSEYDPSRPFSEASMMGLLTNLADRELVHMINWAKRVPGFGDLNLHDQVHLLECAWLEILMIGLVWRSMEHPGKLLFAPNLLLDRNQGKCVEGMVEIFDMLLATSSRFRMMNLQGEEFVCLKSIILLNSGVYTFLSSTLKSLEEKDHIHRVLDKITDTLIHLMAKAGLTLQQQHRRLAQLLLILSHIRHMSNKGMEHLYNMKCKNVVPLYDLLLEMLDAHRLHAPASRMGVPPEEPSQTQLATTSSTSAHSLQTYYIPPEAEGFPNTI

[8] = target: Estrogen receptor beta (Mus musculus) (UniProt O08537); assay: Up regulation of ERbeta expression in mouse calvarial osteoblasts at 1 to 100 pM after 48 hrs by Western blot analysis

Sequence of Estrogen receptor beta (Mus musculus) (O08537 whole entry): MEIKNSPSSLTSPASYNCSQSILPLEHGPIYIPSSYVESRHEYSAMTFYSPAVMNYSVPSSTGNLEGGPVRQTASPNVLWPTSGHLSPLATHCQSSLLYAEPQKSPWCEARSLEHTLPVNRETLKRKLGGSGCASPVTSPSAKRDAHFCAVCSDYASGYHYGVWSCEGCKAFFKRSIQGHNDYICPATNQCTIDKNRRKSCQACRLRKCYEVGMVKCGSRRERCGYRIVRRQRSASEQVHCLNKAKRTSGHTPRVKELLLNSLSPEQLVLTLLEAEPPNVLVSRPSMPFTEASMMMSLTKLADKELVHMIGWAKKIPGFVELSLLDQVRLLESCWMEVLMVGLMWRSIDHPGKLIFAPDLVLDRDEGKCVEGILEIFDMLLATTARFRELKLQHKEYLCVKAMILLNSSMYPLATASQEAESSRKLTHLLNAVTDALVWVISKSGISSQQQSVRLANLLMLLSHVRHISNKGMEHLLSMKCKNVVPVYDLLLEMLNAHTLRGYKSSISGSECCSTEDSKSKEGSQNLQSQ

| Activity [1] | Activity [3] [%] | Activity [7] | Activity [8] | SMILES | Activity (Calvarial osteoblast [2]) | Activity (Calvarial osteoblast [4]) | Activity (Calvarial osteoblast [5]) | Activity (Calvarial osteoblast [6]) |
| --- | --- | --- | --- | --- | --- | --- | --- | --- |
| Active | 20 | Active | Active | COc1ccc(C2COc3cc(OCCCCC(C)(C)O)ccc3C2)cc1 (centres undefined) | Non-Toxic | Active | Active | Active |
| Active |  |  |  | CCC(O)(CC)CCCCOc1ccc2c(c1)OCC(c1ccc(OC)cc1)C2 (centres undefined) | Non-Toxic |  |  |  |
| Active |  |  |  | CCOC(=O)CCCCCOc1ccc2c(c1)OCC(c1ccc(OC)cc1)C2 (centres undefined) | Non-Toxic |  |  |  |
| Active |  |  |  | COc1ccc(C2COc3cc(OCCCCCC(C)(C)O)ccc3C2)cc1 (centres undefined) | Non-Toxic |  |  |  |
